Assay results from patent publication US8796228B2, “Method for neutralizing fungi using sophorolipids and antifungal sophorolipids for use therein” (Synthezyme, LLC, priority 2004, dated 2014).

Tests used:
Experiment in all cases: Antifungal assay, growth inhibition by OD in 96 well plates
Assay type in all cases: cell-based
Conditions in all cases: 5 mg/ml sophorolipid solution, 48 hours at 30° C., OD at 400 nm vs control wells
Candida albicans = tested on: Candida albicans
Protocol: (§1) Sophorolipid solution was prepared by adding 15 mg of compound in 1 ml sucrose solution, pH 8.5.
(§2) All assay were carried out in 96 well plates using Yeast extract-Maltose medium. The logarithmic growing cultures were incubated with 5 mg/ml of sophorolipids for 48 hours at 30° C. Following incubation, the wells were measured for Optical Density (OD) at 400 nm using microtitre plate readers. Percent (%) inhibition of growth was calculated corresponding to the OD in control wells containing no sophorolipid.

Candida antartica = tested on: Candida antartica
Protocol: as §1, §2

Candida tropicalis = tested on: Candida tropicalis
Protocol: as §1, §2

| Structure (SMILES) | Inhibition % (Candida albicans) | Inhibition % (Candida antartica) | Inhibition % (Candida tropicalis) |
| --- | --- | --- | --- |
| CCCCCCOC(=O)CCCCCCC/C=C\CCCCCCC(C)O[C@@H]1O[C@H](CO)[C@@H](O)[C@H](O)[C@H]1O[C@@H]1O[C@H](CO)[C@@H](O)[C@H](O)[C@H]1O (relative stereo) [Hexyl SL, Hexyl 17-L-[(2′-O-β-D-glucopyranosyl-β-D-glucopyranosyl)-oxy]-cis-9-octadecenoate] | 38% | 100% | 100% |
| CCOC(=O)CCCCCCC/C=C\CCCCCCC(C)O[C@@H]1O[C@H](CO)[C@@H](O)[C@H](O)[C@H]1O[C@@H]1O[C@H](CO)[C@@H](O)[C@H](O)[C@H]1O (relative stereo) [SL - Ethyl Ester, Ethyl 17-L-([2′-O-β-D-glucopyranosyl-β-D-glucopyranosyl]-oxy)-cis-9-octadecenoate] | 20% | 28% | 35% |
| COC(=O)CCCCCCC/C=C\CCCCCC[C@H](C)O[C@@H]1O[C@H](CO)[C@@H](O)[C@H](O)[C@H]1O[C@@H]1O[C@H](CO)[C@@H](O)[C@H](O)[C@H]1O (relative stereo) [SL - Methyl Ester, Methyl 17-L-([2′-O-β-D-glucopyranosyl-β-D-glucopyranosyl]-oxy)-cis-9-octadecenoate] | 100% | 71% | 100% |
| CCOC(=O)CCCCCCC/C=C\CCCCCCC(C)O[C@@H]1O[C@H](COC(C)=O)[C@@H](O)[C@H](O)[C@H]1O[C@@H]1O[C@H](COC(C)=O)[C@@H](O)[C@H](O)[C@H]1O (relative stereo) [SL Ethyl Ester Diacetate, Ethyl 17-L-([2′-O-β-D-glucopyranosyl-β-D-glucopyranosyl]-oxy)-cis-9-octadecenoate 6′,6″-diacetate] | 100% | 100% | 100% |
| CCOC(=O)CCCCCCC/C=C\CCCCCC[C@H](C)O[C@@H]1O[C@H](CO)[C@@H](O)[C@H](O)[C@H]1O[C@@H]1O[C@H](COC(C)=O)[C@@H](O)[C@H](O)[C@H]1O (relative stereo) [SL Ethyl Ester Monoacetate, Ethyl 17-L-[(2′-O-β-D-glucopyranosyl-β-D-glucopyranosyl)-oxy]-cis-9-octadecenoate-6″-acetate] | 100% | 42% | 35% |
